Source: article PMC9304199, “A small molecule CFTR potentiator restores ATP‐dependent channel gating to the cystic fibrosis mutant G551D‐CFTR” (British Journal of Pharmacology, 2022)

What was measured:
F508del‐CFTR = F508del‐CFTR (Homo sapiens, UniProt P13569, DEL508-508); assay: Ussing chamber apical Cl− current (ICl apical) in FRT epithelia expressing F508del‐CFTR; type: cell-based; parameters: assays at Charles River Laboratories (ChanTest); settings: for EC50: F508del‐CFTR FRT epithelia, lumacaftor (5 μM) rescued, ICl apical, 27°C, read-out: EC50 (μM) (95% CI)
Protocol: Ussing chamber studies to determine the concentration–response relationships of CFTR potentiators (Figure 1c–f) were performed at Charles River Laboratories (ChanTest) (Cleveland, OH, USA). For these studies, FRT cells were stably transfected with CFTR cDNAs with the F508del and G551D variants and the common polymorphism M470 (synthesised by System Biosciences, Palo Alto, CA, USA) using the Flp‐In™ system (Thermo Fisher Scientific, Waltham, MA, USA). The F508del‐CFTR cDNA contained the following differences from the canonical CFTR cDNA sequence (NCBI Accession Number NM_000492): del CTT (1521–1523) to delete F508; synonymous changes T > C (798), A > G (801), T > C (804) to remove a cryptic bacterial promoter; synonymous change T > C (1095); G > A (1408) to give M470 and was amplified using the primers 5′ […] 3′ and 5′ […] 3′. The G551D‐CFTR cDNA contained the following differences from the canonical CFTR cDNA sequence (NCBI Accession Number NM_000492): G > A (1652) to replace G551 with D551; synonymous changes T > C (798), A > G (801), T > C (804) to remove a cryptic bacterial promoter; synonymous change A > C (516); synonymous change T > C (1095); G > A (1408) to give M470 and was amplified using the primers 5′ […] 3′ and 5′ […] 3′. Using Kpn1 and Not1 restriction sites, the F508del‐ and G551D‐CFTR cDNAs were inserted into pcDNA5/FRT (Flp‐In™) (RRID:Addgene_31984). […]
To test the effects of CP‐628006 on CFTR Cl^− channels in the apical membrane of FRT epithelia, we permeabilized the basolateral membrane with amphotericin B (100 μM). After cancelling voltage offsets, we clamped transepithelial voltage at 0 mV and measured apical Cl^− current (ICl ^apical) continuously using a Physiologic Instruments VCC MC6/8 multichannel voltage/current clamp (Li et al., [2004]).

[1] = target: T1, native CFTR, genotype F508del/F508del (Homo sapiens, UniProt P13569, DEL508-508); assay: Ussing chamber CFTR-mediated short-circuit current (Isc) in F508del/F508del human bronchial epithelial cells; type: cell-based; settings: for EC50: F508del/F508del epithelia of hBE cells, basal F508del‐CFTR expression, Isc, 27°C, read-out: EC50 (μM) (95% CI); for Emax: HBE, read-out: Maximal effect (%) (95% CI)
T1 construct: For functional studies of native CFTR, we used primary cultures of human bronchial epithelial cells; host or cells: primary human bronchial epithelial cells, F508del/F508del, air-liquid interface cultures
Description: For functional studies of native CFTR, we used primary cultures of human bronchial epithelial cells of genotypes F508del/F508del and F508del/G551D. Passage 1 (P1) human bronchial epithelial cells from SH Randell (University of North Carolina [UNC] Cystic Fibrosis Center Tissue Procurement and Cell Culture Core) were differentiated at an air–liquid interface as described by Neuberger et al., ([2011]) with some modifications. The research conducted on human cells at UNC has been verified as compliant with Pfizer policies, including institutional review board or institutional ethics committee approval. Cells were thawed and expanded in BEGM™ Bronchial Epithelial Cell Growth Medium (cat. no. CC‐3170, Lonza, USA) supplemented with retinoic acid (10 nM) and banked at P2. For functional assays, P2 cells were expanded to P4, and 5 × 10^5 P4 human bronchial epithelial cells were seeded in growth medium on Snapwell filter inserts (cat. no. 3801, Corning, NY, USA). Cells were switched to differentiation medium the following day and cultured submerged for 3 days before the medium was removed from the apical membrane to establish an air–liquid interface. Thereafter, the basolateral medium was changed every 2–3 days and mucus washed from the apical membrane every 2–3 weeks and the day prior to use starting 21 days after initiating air–liquid interface culture.
After >30 days of air–liquid interface culture on Snapwell filter inserts, human bronchial epithelial cells formed well differentiated, electrically tight epithelia (Rt > 200 Ω cm^2). Prior to study, F508del/F508del and F508del/G551D human bronchial epithelial cell cultures were incubated at 37°C and 5% CO2.
Epithelia were mounted in Ussing chambers and data acquired and analysed as described above for Ussing chamber studies of FRT cells heterologously expressing CFTR with the following exceptions. Both the apical and basolateral membranes were bathed in solutions containing (mM): 137 NaCl, 4 KCl, 1.8 CaCl2, 1 MgCl2, 10 Na HEPES, and 10 glucose (pH 7.4 with NaOH). Epithelia of F508del/G551D human bronchial epithelial cells were studied at 35°C, whereas those of F508del/F508del human bronchial epithelial cells were assayed at 27°C to maintain the apical membrane expression of F508del‐CFTR. After cancelling voltage offsets, transepithelial voltage was clamped at 0 mV and short‐circuit current (Isc) recorded continuously. The protocol to record CFTR‐mediated Isc was the same as for ICl ^apical measurements except that amiloride (30 μM, apical solution) was added to inhibit the epithelial Na^+ channel before forskolin (10 μM, apical and basolateral solutions) addition.

Chain of F508del‐CFTR (P13569 with tags, fused parts or gaps DEL508-508): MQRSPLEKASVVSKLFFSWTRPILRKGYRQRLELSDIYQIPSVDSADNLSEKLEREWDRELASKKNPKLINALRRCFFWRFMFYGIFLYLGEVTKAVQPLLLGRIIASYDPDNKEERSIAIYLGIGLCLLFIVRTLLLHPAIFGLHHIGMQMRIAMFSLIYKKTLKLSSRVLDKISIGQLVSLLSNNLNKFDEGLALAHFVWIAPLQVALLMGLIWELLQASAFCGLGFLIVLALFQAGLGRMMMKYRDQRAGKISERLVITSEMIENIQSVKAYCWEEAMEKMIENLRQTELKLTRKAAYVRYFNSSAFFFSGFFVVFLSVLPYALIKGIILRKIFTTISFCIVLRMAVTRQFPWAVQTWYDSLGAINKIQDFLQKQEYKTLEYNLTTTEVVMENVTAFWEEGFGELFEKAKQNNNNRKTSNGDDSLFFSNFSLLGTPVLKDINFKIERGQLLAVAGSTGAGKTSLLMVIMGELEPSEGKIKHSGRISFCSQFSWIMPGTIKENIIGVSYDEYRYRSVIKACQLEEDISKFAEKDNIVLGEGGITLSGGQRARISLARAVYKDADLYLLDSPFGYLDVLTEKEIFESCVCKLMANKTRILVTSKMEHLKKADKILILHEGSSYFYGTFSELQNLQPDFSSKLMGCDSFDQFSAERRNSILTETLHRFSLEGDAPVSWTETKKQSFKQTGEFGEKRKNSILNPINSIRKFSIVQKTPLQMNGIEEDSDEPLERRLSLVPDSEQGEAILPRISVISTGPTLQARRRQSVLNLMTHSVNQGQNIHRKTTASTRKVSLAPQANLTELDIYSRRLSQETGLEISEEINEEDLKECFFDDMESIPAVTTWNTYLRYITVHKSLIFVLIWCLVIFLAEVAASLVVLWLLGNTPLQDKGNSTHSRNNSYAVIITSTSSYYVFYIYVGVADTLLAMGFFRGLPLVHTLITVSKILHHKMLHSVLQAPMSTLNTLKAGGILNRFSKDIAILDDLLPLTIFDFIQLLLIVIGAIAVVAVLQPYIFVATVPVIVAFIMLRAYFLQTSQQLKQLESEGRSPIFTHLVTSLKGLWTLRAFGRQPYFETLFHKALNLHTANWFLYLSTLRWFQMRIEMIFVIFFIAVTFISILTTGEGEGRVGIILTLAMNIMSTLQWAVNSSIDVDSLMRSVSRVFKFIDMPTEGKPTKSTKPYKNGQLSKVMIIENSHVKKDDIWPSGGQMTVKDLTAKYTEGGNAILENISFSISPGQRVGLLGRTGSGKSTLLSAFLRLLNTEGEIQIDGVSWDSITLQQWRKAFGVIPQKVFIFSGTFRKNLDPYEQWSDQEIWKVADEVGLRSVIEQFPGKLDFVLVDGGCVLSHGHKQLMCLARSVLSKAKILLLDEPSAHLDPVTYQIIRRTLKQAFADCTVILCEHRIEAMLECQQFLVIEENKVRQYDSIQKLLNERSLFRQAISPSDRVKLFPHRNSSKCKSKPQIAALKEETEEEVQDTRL
T1 sequence (P13569 with tags, fused parts or gaps DEL508-508): as above

| Structure (SMILES) | EC50 (F508del‐CFTR) [µM] | Emax (F508del‐CFTR; read-out: Maximal effect (%) (95% CI)) | EC50 [1] [µM] | Emax [1] [%] |
| --- | --- | --- | --- | --- |
| CC(C)(C)c1cc(C(C)(C)C)c(NC(=O)c2c[nH]c3ccccc3c2=O)cc1O [ivacaftor, reference compound] | 0.002 | 103 | 0.002 | 102 |
| Cc1ncccc1CNC(=O)c1ccc2c(c1)CC[C@H]1C[C@](O)(CCC(F)(F)F)CC[C@]21Cc1ccccc1 (racemic) [CP‐628006, rac‐(4bR,7R,8aS)‐4b‐benzyl‐7‐hydroxy‐N‐((2‐methylpyridin‐3‐yl)methyl)‐7‐(3,3,3‐trifluoropropyl)‐4b,5,6,7,8,8a,9,10‐octahydrophenanthrene‐2‐carboxamide] | > 0.5 |  | 0.062 | 56 |
